Holding throughout (format): cell-based
One experiment concerns IRF4. As to the kind of experiment: Intracellular staining of IRF4 in LPS-activated THP-1 cells. The following applies: THP-1, LPS 100 ng/ml, 16 μM, 24 hours. An excerpt: FIG. 16. Effect of MBK50 on MYC and IRF4 expression in LPS-activated monocytic leukemia cell line THP-1 cells. […] MYC and IRF4 expression levels were examined by intracellular staining of MYC and IRF4 with isotype control staining followed by flow cytometry. FIG. 16(a) A scheme of the experimental procedure. FIG. 16(b) A representative histogram overlay for the MYC expression in THP-1 cells treated with MBK50, mutant control peptide or PBS, with isotype control. The average mean fluorescent intensity (MFI) for MYC expression (n=3) for each treatment is shown in the right panel. FIG. 16(c) A representative histogram overlay for the IRF4 expression (red) in THP-1 cells treated with MBK50, mutant control peptide, or PBS, with isotype control (blue). The average MFI for IRF4 expression for each treatment is shown in the right panel.
MYC is important for monocytic cell proliferation, especially upon LPS stimulation. […] MYC and IRF4 expression levels were examined by intracellular staining of MYC and IRF4 with isotype control staining followed by flow cytometry (FIG. 16a). […] Also, the percentage of THP-1 cells with reduced IRF4 expression was increased by MBK50 treatment compared to mutant control peptide or PBS treatment.

Experiment [1] deals with MYC. As to the kind of experiment: qRT-PCR of MYC expression. The conditions noted are these: qRT-PCR with specific primers. The procedure:
FIGS. 1A-H. Viral protein sequence based cancer drug. (FIG. 1A) Discovery of hijacking transcription machinery in KSHV reactivating cells (Chen et al., J. Virol 2017). […] (FIG. 1B) Reporter assay. KSHV ORF50 overexpression inhibits MYC activation. (FIG. 1C) Chromatin immunoprecipitation with Mass Spectrometry. Proteins inducibly interact with both ORF50 and RNA polII are shown. […] (FIG. 1E) Mapping of interacting domain. GST-pull down was performed to identify NCoA2 binding domains. Purified NCoA2 was made from recombinant baculovirus infected cells and KSHV ORF50 deletion proteins were made in E. coli. Peptides are then generated as TAT-fusion for cell penetration. (FIG. 1F) ChIP-seq and RNA-seq. ChIP-seq was performed to identify NCOA2 target genes in primary effusion lymphoma cells. NCoA2 localization is highly associated with active genes and localizes with RNA pol II at enhancer regions. […] The qRT-PCR was performed with specific primers. (FIG. 1H) Gene set enrichment analyses (GSEA). RNA sequencing was performed with peptide-treated PEL cells. […] (FIG. 1I) The peptide drug. Wt peptide or mutant peptide was incubated in culture media. Forty-eight hours later, live cells were measured by applying MTS. Cell viability was compared with no-treated samples. No treated sample was set as 1.

For experiment [2], the system named is MYC. As to the kind of experiment: SLAM-seq, MYC transcription. The following applies: 24 μM, 30 min then 4sU 1 hour. The procedure: (§1) FIG. 9. Profiling Peptide targets with Thiol(SH)-linked alkylation for the metabolic sequencing of RNA (SLAM seq). Differences in active transcription in presence of peptide drug was examined. […] Total RNA-sequence performed 24 hours after drug incubation.
(§2) Thiol(SH)-linked alkylation for the metabolic sequencing of RNA (SLAM seq), an orthogonal-chemistry-based RNA sequencing technology detects 4-thiouridine (s4U) incorporation in RNA species at single-nucleotide resolution. Using SLAM-seq method, BC-1 cells were incubated with peptide drug and peptide with three amino acid substitute to alanine was used as a control peptide. Peptide drug was incubated in BC-1 cell culture (24 μM) and after 30 min drug incubation, 4sU (300 μM in final concentration) was added into culture media for 1 hour. Total RNA was isolated in the end of 1 hour 4sU incubation and alkylated RNA samples were subjected to SLAM-seq. Samples were duplicated and changed gene expression vs mock-treated cells (P<0.05) was marked in red. […] IGV viewer was used to visualize sequence reads at MYC region (Chr. 8). […] Log 2 fold changes and adjusted P-value of MYC down regulation in both BCBL-1 and BC-1 cells are depicted in underneath of panel.

In the next experiment the test system is MYC target genes. As to the kind of experiment: Total RNA sequencing with Gene Set Enrichment Analyses. The conditions noted are these: total RNA-sequence 24 hours post-drug treatment, PEL cells. The method, then:
FIGS. 1A-H. Viral protein sequence based cancer drug. (FIG. 1A) Discovery of hijacking transcription machinery in KSHV reactivating cells (Chen et al., J. Virol 2017). […] (FIG. 1B) Reporter assay. KSHV ORF50 overexpression inhibits MYC activation. (FIG. 1C) Chromatin immunoprecipitation with Mass Spectrometry. Proteins inducibly interact with both ORF50 and RNA polII are shown. […] (FIG. 1E) Mapping of interacting domain. GST-pull down was performed to identify NCoA2 binding domains. Purified NCoA2 was made from recombinant baculovirus infected cells and KSHV ORF50 deletion proteins were made in E. coli. Peptides are then generated as TAT-fusion for cell penetration. (FIG. 1F) ChIP-seq and RNA-seq. ChIP-seq was performed to identify NCOA2 target genes in primary effusion lymphoma cells. NCoA2 localization is highly associated with active genes and localizes with RNA pol II at enhancer regions. […] The qRT-PCR was performed with specific primers. (FIG. 1H) Gene set enrichment analyses (GSEA). […] Forty-eight hours later, live cells were measured by applying MTS. […]
Thiol(SH)-linked alkylation for the metabolic sequencing of RNA (SLAM seq), an orthogonal-chemistry-based RNA sequencing technology detects 4-thiouridine (s4U) incorporation in RNA species at single-nucleotide resolution. […] IGV viewer was used to visualize sequence reads at MYC region (Chr. 8). […]

Experiment [3] relates to Kaposi's sarcoma-associated herpesvirus (KSHV). Description: Total RNA-sequencing of peptide-resistant KSHV-infected B-cells. The following applies: continued peptide incubation, resistant cells vs parental cells. The method, then: FIG. 10. Peptide long-term treatment changes B-cell phenotype. RNA-seq was performed after generating peptide-drug resistant cell population.
The peptide sequence is based on KSHV transactivator protein sequence, and it is expected that the peptide will compete with viral transactivator protein for recruitment of cellular transactivation complex. We continued to incubate with peptide drug in KSHV-naturally infected B-cells and generated resistant cell line (RC). The resistant cells were then used to identify putative drug targets by comparing parental cells with total RNA-sequencing.

Experiment [4] deals with multiple cancer cell lines. Description: MTT assay on multiple cancer cell lines. The following applies: 0-96 μM; BCBL-1, Ramos, SU-DHL-10, HH, Jurkat, THP-1, U937, A549. The procedure:
FIG. 6. Viral and cellular responses to K-Rta peptide; identification of VGN50. (a) Protein sequence alignment. FIG. 6(A) The effect of VGN50 on various cancer cell types. MTT assays were performed with the indicated cell lines treated with various VGN50 concentrations. The O.D. of mock-treated samples were set as 100%, and O.D. from detergent treated cells were set as 0%. Percentage viability+/−SD was calculated for each treatment (N=3 samples/treatment). FIG. 6(B) Viability assay with flow cytometry. Cell viability was measured in triplicate with live/dead staining and the cell killing effects on cancer cells was compared with normal peripheral blood mononuclear cells (PBMC) from three healthy donors. Results are presented as percentage viability+/−SD deviation (N=3 samples/group).
As shown in FIG. 6(a), multiple cancer cell lines were used for MTT assay to evaluate cancer cell killing efficacies of the MBK50 peptide at different concentrations (cell variability studies). […] Importantly, human peripheral blood mononuclear cells (PBMCs) from healthy donors were approximately 10-fold less sensitive to MBK-mediated killing compared to myeloid and lymphoid cancer cell lines (e.g., THP-1 and BCBL-1) as assessed by flow cytometry after live/dead staining (FIG. 6(b)). […]

Another experiment relates to BC-1 cells. Description: SLAM-seq, active transcription of cellular genes. The following applies: 24 μM, 30 min then 4sU 1 hour, BC-1 (FIG. 9: BCBL-1 and BC1). The procedure: as §1, §2

Turning to LSSILQGLYQLDT [MBK50], the “percentage of THP-1 cells with reduced IRF4 expression” value with IRF4 is “increased”. Further, in the experiment on MYC [1], the MYC expression result was “Down modulation”. For the same sequence, the figures for the “MYC transcript species containing T→C mutation (Myc transcription)” value in the experiment on MYC [2] and in the experiment on MYC [2] (listed as peptide drug) were “significantly decreased” and “strongly down-regulated”, respectively. Also, the “GSEA of MYC target genes” value in the experiment with MYC target genes is “highest enrichment scores with zero false discovery rate”; in the experiment on MYC target genes (listed as Wt-peptide), “enrichment of MYC-target gene down-regulation”. The “latently infected KSHV gene expression” value in experiment [3] was “significantly down-regulated”. Further, the “cancer cell killing efficacy across cell lines” value in experiment [4] is “more effective to lymphoid cell lines”. The “cellular gene expression (active transcription)” value with BC-1 cells (listed as Wt-peptide) is reported as “inhibited multiple cellular gene expression”; with BC-1 cells (listed as peptide drug) it was “strongly inhibited active transcription”.
